Values quoted from earlier work, collected in patent US4241056A, “Penicillins and salts thereof” (Boehringer Ingelheim GmbH, priority 1978, dated 1980).
Counter-ions that a name gives are not always drawn.

Key:
various kinds of E. coli = settings: cited from earlier work
Klebsiella = settings: cited from earlier work
Pseudomonas = settings: in vivo as well as in vitro; cited from earlier work

SMILES	activity against various kinds of E. coli (various kinds of E. coli)	activity against Klebsiella (Klebsiella)	antipseudomonal activity (Pseudomonas)
CC1(C)S[C@@H]2[C@H](NC(=O)[C@H](NC(=O)N3CCNC3=O)c3ccccc3)C(=O)N2[C@H]1C(=O)O [Azlocillin, 6-{D-α-[(2-oxo-imidazolidine-1-yl)carbonylamino]-4-phenyl-acetamino}-pencillanic acid sodium salt]	only a moderate activity	only a moderate activity	–
CC1(C)S[C@@H]2[C@H](NC(=O)[C@H](C(=O)O)c3ccsc3)C(=O)N2[C@H]1C(=O)O [Ticarcillin]	–	–	only a poor activity
